Assay results published in patent publication US12178809B2, “Pyridinyl sulfonamide derivatives, pharmaceutical compositions and uses thereof” (Boehringer Ingelheim International GmbH, priority 2018, dated 2024).
Structures can show the parent of a compound that is named as a salt. Where two headings read alike, the source gives them in different places.

Columns and labels:
human AOC3 enzyme = human AOC3 enzyme (Homo sapiens (Human), UniProt Q16853); test: AOC3 biochemical assay (MAO-Glo)
Text: The MAO-Glo™ Assay (commercially available from PROMEGA, #V1402) provides a sensitive method for the measurement of monoamine oxidase (MAO) activity (Valley, M. P. et al., 2006, Anal. Biochem. 359: 238-246) from a variety of tissues, biofluids or recombinant expressed or purified enzymes. As substrate a derivate of the beetle luciferin ((4S)-4,5-dihydro-2-(6-hydroxybenzothiazolyl)-4-thiazole-carboxylic acid) is used, which is oxidized at a primary amine moiety. After a spontaneous elimination and a catalyzed esterase reaction, the turnover of the luciferine by the luciferase is recorded as a signal of AOC3 activity.
An aliquot of 3 μL of the compound dilution is added to a 384 well plate (Optiplate, PS, flat bottom, white, PERKIN ELMER, #6007290) with a final DMSO concentration of 6.6%. Recombinant CHO cells, overexpressing the human (1500 cells/well), mouse (1000 cells/well) or rat (500 cells/well) AOC3 enzyme are diluted in reaction buffer and added in a volume of 15 μL to the wells. After incubation for 20 minutes at 37° C., 2 μL of MAO substrate (dissolved in DMSO at 16 mM, adjusted to assay concentration in reaction buffer to a final assay concentration of 20 μM) is added and further incubated for 60 minutes at 37° C. The turnover of the substrate is determined by the addition of 20 μL of the detection-mix which was generated by the addition of reconstitution buffer with esterase (PROMEGA, #V1402) to the luciferine detection reagent (PROMEGA, #V1402). After an incubation period of 20 minutes, the luminescent signal is measured with Envision 2104 Multilabel Reader (PERKIN ELMER).

AOC2 = AOC2 (Homo sapiens (Human), UniProt O75106); test: AOC2 biochemical assay (Amplex Red)
Sequence of AOC2 (O75106 whole entry): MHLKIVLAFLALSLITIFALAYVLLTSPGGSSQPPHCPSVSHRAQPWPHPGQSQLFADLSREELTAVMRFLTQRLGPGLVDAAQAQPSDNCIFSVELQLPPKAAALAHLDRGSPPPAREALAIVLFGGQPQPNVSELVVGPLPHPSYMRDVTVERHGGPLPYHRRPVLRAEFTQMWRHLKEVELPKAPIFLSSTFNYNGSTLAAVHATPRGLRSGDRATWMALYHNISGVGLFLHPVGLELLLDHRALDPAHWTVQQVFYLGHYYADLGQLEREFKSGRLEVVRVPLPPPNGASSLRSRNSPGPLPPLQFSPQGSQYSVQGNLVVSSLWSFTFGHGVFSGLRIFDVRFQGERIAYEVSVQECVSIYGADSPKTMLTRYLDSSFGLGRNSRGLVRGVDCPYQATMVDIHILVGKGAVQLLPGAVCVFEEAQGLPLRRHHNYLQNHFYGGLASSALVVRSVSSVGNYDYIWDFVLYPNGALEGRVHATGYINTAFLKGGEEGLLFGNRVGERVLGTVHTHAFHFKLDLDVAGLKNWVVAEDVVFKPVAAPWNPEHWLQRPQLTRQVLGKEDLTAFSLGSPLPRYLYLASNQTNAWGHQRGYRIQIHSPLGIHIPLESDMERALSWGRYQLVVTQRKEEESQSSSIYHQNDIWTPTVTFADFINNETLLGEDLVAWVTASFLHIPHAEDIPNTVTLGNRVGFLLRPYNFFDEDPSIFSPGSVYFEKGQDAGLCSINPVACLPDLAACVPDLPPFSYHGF
Method: An aliquot of 5 μL of the compound dilution is added to a 96 well plate (flat bottom F, black, GREINER bio-one, #655900) in a DMSO concentration of 2%. […] Cells are cultured for 3 days in EMEM culture medium containing 10% FCS (#04-00-1A, Biological Industries). After washing twice with ice cold PBS, cells are lysed by mechanic homogenation and cleared supernatants are shock frozen in liquid nitrogen and stored at -80° C. […] An Aliquot of 45 μL is added to the compound dilution and incubated for 30 min at 37° C. The enzymatic reaction is started with the addition of 50 μL of Amplex® Red reaction mix (final assay concentration: 100 mM sodiumphosphate, 120 μM Amplex® Red reagent (#A22177 Molecular Probes), 1.5 U/mL Horseradish Peroxidase (#P8375 Sigma-Aldrich), 2 mM phenylethylamine (#[…] Sigma-Aldrich), 0.05% Pluronic F-127 (#P3000MP Sigma-Aldrich), pH 7.4, 37° C.). The turnover per time of the substrate is determined directly with a fluorescence reader (Ex 540 nm/Em 590 nm) like Envision 2104 Multilabel Reader (PERKIN ELMER) for 60 min.

AOC1 = AOC1 (Homo sapiens (Human), UniProt P19801); test: AOC1 biochemical assay (Amplex Red)
Sequence of AOC1 (P19801 20-751): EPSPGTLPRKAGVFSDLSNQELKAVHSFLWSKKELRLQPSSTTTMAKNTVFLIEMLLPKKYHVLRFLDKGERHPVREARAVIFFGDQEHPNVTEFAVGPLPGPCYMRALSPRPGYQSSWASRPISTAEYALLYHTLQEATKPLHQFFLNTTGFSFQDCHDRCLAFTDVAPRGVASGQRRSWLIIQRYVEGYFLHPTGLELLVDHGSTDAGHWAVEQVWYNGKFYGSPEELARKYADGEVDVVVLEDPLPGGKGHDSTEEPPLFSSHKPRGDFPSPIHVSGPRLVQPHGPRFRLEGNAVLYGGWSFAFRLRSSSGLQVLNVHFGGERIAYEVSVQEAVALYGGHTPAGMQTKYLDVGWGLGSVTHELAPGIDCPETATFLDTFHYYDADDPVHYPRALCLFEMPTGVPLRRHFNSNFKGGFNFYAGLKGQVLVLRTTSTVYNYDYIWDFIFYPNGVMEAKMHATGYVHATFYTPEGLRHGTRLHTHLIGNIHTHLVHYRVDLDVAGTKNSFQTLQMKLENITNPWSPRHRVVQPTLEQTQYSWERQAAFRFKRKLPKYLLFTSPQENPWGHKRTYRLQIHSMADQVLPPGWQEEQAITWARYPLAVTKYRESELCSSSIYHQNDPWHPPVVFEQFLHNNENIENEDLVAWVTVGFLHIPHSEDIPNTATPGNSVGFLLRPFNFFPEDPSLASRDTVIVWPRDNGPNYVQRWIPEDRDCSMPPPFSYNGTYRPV
Method: The Amplex® Red Assay (available from Thermo Fisher Scientific) provides a sensitive method for the detection of H2O2 generated during enzymatic reactions like the amine oxidation catalyzed by AOC1. The assay reagent is a colorless substrate (N-acetyl-3,7-dihydroxyphenoxazine) that reacts in a 1:1 stoichiometry with hydrogen peroxide (H2O2) to produce the fluorescent dye resorufin (7-hydroxyphenoxazin-3-one, excitation/emission maxima=570/585 nm).
An aliquot of 3 μL of the compound dilution is added to a 384 well plate (Optiplate, PS, flat bottom F, black, PERKIN ELMER, #6007270) in a DMSO concentration of 6.6%.
An AOC1 enzyme aliquot (#8297-AO-010, R&D Systems) is thawed on ice, diluted in reaction buffer and added in a volume of 7 μL to the wells to give a final assay concentration of 1 ng/well. After incubation of inhibitor and enzyme for 30 minutes at 37° C., the enzymatic reaction is started with the addition of 10 μL of Amplex® Red reaction mix (final assay concentration: 100 mM sodiumphosphate, 120 μM Amplex® Red reagent (#A22177 Molecular Probes), 1.5 U/mL Horseradish Peroxidase (#P8375 Sigma-Aldrich), 200 μM putrescine (#P7505 Sigma-Alrdich), 0.05% Pluronic F-127 (#P3000MP Sigma-Aldrich), pH 7.4, 37° C.).
After an incubation for 30 minutes at 37° C. the turnover of the substrate is determined directly (or after the addition of an excess of an amine-oxidase inhibitor) with a fluorescence reader (Ex 540 nm/Em 590 nm) like Envision 2104 Multilabel Reader (PERKIN ELMER).

[1] = comparison table, read-out: IC50 AOC3
[2] = comparison table, read-out: IC50 AOC1

Sequence of human AOC3 enzyme (Q16853 whole entry): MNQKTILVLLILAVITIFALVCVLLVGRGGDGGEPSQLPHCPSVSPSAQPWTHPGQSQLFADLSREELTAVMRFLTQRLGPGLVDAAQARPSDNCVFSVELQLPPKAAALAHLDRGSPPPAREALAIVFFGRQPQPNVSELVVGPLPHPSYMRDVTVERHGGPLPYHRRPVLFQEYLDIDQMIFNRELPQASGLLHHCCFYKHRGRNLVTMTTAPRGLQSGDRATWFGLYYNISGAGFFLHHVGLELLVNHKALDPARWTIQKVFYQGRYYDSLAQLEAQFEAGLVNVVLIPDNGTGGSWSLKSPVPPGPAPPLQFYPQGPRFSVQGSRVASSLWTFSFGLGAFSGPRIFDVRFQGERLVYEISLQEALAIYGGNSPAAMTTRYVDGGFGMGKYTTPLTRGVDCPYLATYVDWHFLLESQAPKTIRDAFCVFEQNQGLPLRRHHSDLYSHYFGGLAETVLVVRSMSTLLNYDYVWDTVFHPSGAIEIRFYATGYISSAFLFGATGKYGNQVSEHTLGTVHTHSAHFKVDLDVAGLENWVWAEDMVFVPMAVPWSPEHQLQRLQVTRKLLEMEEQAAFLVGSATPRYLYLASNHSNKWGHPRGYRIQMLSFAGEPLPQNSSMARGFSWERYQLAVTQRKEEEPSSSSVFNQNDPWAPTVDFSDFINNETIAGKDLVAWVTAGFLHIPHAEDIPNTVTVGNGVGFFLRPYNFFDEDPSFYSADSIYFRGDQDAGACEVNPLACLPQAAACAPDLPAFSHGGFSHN

Row | SMILES | IC50 (human AOC3 enzyme; read-out: AOC3 IC50) [nM] | IC50 (AOC2; read-out: AOC2 IC50) [nM] | IC50 (AOC1; read-out: AOC1 IC50) [µM] | IC50 (human AOC3 enzyme; [1]) [nM] | IC50 (AOC2; comparison table, read-out: IC50 AOC2) [nM] | IC50 (AOC1; [2]) [µM] | IC50 (AOC1; comparison table, unit μM, read-out: IC50 AOC1) [µM]
1 | COC(=O)CC1CCN(S(=O)(=O)c2ccc(OC/C(=C/F)CN)nc2)CC1 [Example 22] | 11 | 188 | > 50 |  |  |  | 
2 | CO[C@H]1CCN(c2ncc(OC/C(=C/F)CN)cn2)C1 [Example 5 of WO 2018/027892, reference compound] |  |  |  | 13 | 497 | 0.268 | 
3 | CC1(O)CN(S(=O)(=O)c2ccc(OC/C(=C/F)CN)nc2)C1 [Example 18] | 37 | 244 | > 50 |  |  |  | 
4 | NC/C(=C\F)COc1ccc(S(=O)(=O)N2CC[C@@H](C(N)=O)C2)cn1 [Example 33] | 15 | 49 | 33 |  |  |  | 
5 | CC1(C(=O)NC2CCOCC2)CCN(S(=O)(=O)c2ccc(OC/C(=C/F)CN)nc2)CC1 [Example 58, 1-[6-((E)-2-Aminomethyl-3-fluoro-allyloxy)-pyridine-3-sulfonyl]-4-methyl-piperidine-4-carboxylic acid (tetrahydropyran-4-yl)-amide trifluoroacetate] | 114 | 363 | > 49.9 |  |  |  | 
6 | CN(C)C(=O)CC1CCN(S(=O)(=O)c2ccc(OC/C(=C/F)CN)nc2)CC1 [Example 16] | 30 | 262 | > 50 |  |  |  | 
7 | NC/C(=C\F)COc1ccc(S(=O)(=O)N2CC[C@H](C(N)=O)C2)cn1 [Example 49] | 21 | 50 | > 50 |  |  |  | 
8 | CCNC(=O)CC1CCN(S(=O)(=O)c2ccc(OC/C(=C/F)CN)nc2)CC1 [Example 19] | 32 | 214 | > 50 |  |  |  | 
9 | NC/C(=C\F)COc1cnc(N2CCC(O)CC2)nc1 [Example 2 of WO 2018/027892, reference compound] |  |  |  | 20 |  | 0.269 | 
10 | NC/C(=C\F)COc1ccc(S(=O)(=O)N2CC(F)(F)C2)cn1 [Example 37] | 15 | 451 | 22.6 |  |  |  | 
11 | CN1CCN(C2CCN(S(=O)(=O)c3ccc(OC/C(=C/F)CN)nc3)CC2)C1=O [Example 21] | 20 | 190 | > 50 |  |  |  | 
12 | CC1(C(N)=O)CCN(S(=O)(=O)c2ccc(OC/C(=C/F)CN)nc2)CC1 [Example 61] | 26 | 61 | > 50 |  |  |  | 
13 | NC/C(=C\F)COc1ccc(S(=O)(=O)N2CC[C@H](O)C2)cc1 [Reference compound B, reference compound] |  |  |  | 27 |  |  | > 50
14 | NC/C(=C\F)COc1ccc(S(=O)(=O)N2CCC(C(=O)NCCF)CC2)cn1 [Example 64] | 17 |  | > 50 |  |  |  | 
15 | COCCNC(=O)[C@H]1[C@@H]2CN(S(=O)(=O)c3ccc(OC/C(=C/F)CN)nc3)C[C@@H]21 [Example 66] | 23 |  | 31 |  |  |  | 
16 | NC/C(=C\F)COc1ccc(S(=O)(=O)N2CCC(C(=O)NCCO)CC2)cn1 [Example 62] | 18 |  | > 50 |  |  |  | 
17 | NC/C(=C\F)COc1ccc(S(=O)(=O)N2CCC(C(=O)NC3CC3)CC2)cn1 [Example 63] | 19 |  | > 50 |  |  |  | 
18 | CNC(=O)[C@@H]1CCN(S(=O)(=O)c2ccc(OC/C(=C/F)CN)nc2)C1 [Example 24] |  | 165 | > 50 |  |  |  | 
